Experimental data from article PMC10442599 (RSC Advances, 2023).
Entries after “also recorded” stand apart in the source; their conditions may differ.

Experiments:
Format in all cases: biochemical
[1] = system: AChE; experiment: Residual activity of AChE at 10 μM; settings: inhibitor 10 μM
[2] = target: T1, MAO-B (Homo sapiens, UniProt P27338); experiment: Inhibition of MAO-B; settings: for remaining activity at 10 µM: read-out: Residual activities at 10 μM (%) MAO-B; for SI (MAO), selectivity index = IC50 (MAO-A)/IC50(MAO-B): MAO-B over MAO-A
T1 sequence (P27338 1-520): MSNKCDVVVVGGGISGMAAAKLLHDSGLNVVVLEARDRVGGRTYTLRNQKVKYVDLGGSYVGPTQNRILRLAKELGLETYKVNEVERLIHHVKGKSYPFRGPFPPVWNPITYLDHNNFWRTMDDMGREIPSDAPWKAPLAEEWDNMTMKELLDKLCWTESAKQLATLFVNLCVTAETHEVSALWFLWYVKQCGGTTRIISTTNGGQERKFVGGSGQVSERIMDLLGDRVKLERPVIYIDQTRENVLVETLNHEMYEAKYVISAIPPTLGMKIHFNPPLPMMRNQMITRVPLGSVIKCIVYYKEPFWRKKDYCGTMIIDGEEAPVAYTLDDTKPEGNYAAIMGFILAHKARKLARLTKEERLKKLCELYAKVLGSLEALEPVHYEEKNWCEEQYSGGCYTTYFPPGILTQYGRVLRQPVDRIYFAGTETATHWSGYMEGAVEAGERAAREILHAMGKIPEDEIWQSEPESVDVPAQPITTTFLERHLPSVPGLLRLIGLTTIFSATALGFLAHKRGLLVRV

[3] = system: BChE; experiment: Residual activity of BChE at 10 μM; settings: inhibitor 10 μM
[4] = target: T2, Recombinant human MAO-A (Homo sapiens, UniProt P21397); experiment: Inhibition of MAO-A; settings: for remaining activity at 10 µM: read-out: Residual activities at 10 μM (%) MAO-A
T2 sequence (P21397 1-527): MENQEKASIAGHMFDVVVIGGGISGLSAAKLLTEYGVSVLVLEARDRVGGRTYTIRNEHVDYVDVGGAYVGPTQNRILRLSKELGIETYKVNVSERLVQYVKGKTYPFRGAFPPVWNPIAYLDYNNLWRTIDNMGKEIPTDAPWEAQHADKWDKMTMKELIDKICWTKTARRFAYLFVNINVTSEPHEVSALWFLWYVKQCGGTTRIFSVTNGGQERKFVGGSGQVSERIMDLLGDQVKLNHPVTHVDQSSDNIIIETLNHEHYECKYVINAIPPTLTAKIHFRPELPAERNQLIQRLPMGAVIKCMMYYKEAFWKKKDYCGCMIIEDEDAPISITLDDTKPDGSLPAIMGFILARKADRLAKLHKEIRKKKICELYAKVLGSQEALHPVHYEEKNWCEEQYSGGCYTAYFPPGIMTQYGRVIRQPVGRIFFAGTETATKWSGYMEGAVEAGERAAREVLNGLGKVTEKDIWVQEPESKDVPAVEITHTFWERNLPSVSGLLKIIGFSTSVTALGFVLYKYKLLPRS

[5] = target: T1, MAO-B; experiment: Enzyme kinetics of MAO-B inhibition
[6] = target: T1, MAO-B; experiment: Reversibility of MAO-B inhibition by dialysis; settings: 2-times IC50

Structure (SMILES)	Residual activities at 10 μM (%) AChE [1]	IC50 [2]	remaining activity at 10 µM [2]	Residual activities at 10 μM (%) BChE [3]	IC50 [4]	remaining activity at 10 µM [4]	SI (MAO), selectivity index = IC50 (MAO-A)/IC50(MAO-B) [2]	Ki [5]	Type of MAO-B inhibition ([5]; Lineweaver–Burk plot)	Reversibility of MAO-B inhibition [6]
Cc1ccc2c(c1)C(=O)C1(CCCC1)N2 [Compound 10b]	83.39 ± 1.93%	> 40 µM	82.2 ± 9.06%	73.82 ± 7.10%	> 40 µM	72.2 ± 3.58%				
O=C1c2ccccc2N(Cc2ccccc2Br)C12CCCC2 [Compound 11k]	68.03 ± 3.68%	14.3 ± 1.45 µM	60.2 ± 1.44%	51.41 ± 0.53%	9.01 ± 0.36 µM	41.9 ± 4.56%	0.63			
Cc1ccc2c(c1)C(=O)C1(CCCC1)N2Cc1ccccc1 [Compound 11b]	80.92 ± 5.07%	5.99 ± 0.36 µM	26.1 ± 2.75%	65.10 ± 0.74%	> 40 µM	79.6 ± 5.03%				
O=C1c2ccccc2NC12CCCC2 [Compound 10a]	76.29 ± 6.64%	15.6 ± 2.33 µM	57 ± 2.99%	73.90 ± 4.90%	20.8 ± 2.89 µM	66.9 ± 2.47%	1.34			
O=C1c2ccccc2N(Cc2ccc(Br)cc2)C12CCCC2 [Compound 11f]	68.95 ± 0.39%	1.44 ± 0.21 µM	5.22 ± 1.06%	72.06 ± 6.88%	17.2 ± 1.14 µM	67.9 ± 6.53%	11.91	0.51 ± 0.023 µM	competitive inhibitor; also recorded: competitive inhibition	reversible
O=C1c2cc(Br)ccc2N(Cc2ccccc2)C12CCCC2 [Compound 11d]	81.90 ± 1.22%	2.81 ± 0.71 µM	-16.2 ± 2.34%	71.19 ± 4.17%	14 ± 0.96 µM	62 ± 0.94%	5.00			
